{"source": "patent US11951092B2", "about": "“Agent for preventing or treating brain atrophy” (FUJIFILM Toyama Chemical Co., Ltd., priority 2017, dated 2024)", "key": {"[1]": {"system": "mild to moderate AD patients (brain volume: whole brain, hippocampus, 101 areas)", "assay": "Test Example 1: Phase II placebo-controlled trial, brain volume change by volumetric MRI", "format": "in vivo, human", "conditions": "for Change in brain volume, Hippocampus, Least square means / Change in brain volume, Whole brain, Least square means / Change in brain volume, Hippocampus, Difference from placebo group / Change in brain volume, Whole brain, Difference from placebo group: vMRI at week 52 from baseline", "text": "Multicenter Randomized Double-Blind Phase II Placebo-Controlled Trial for Assessing Effectiveness and Safety of Compound A in Mild to Moderate AD Patients Subject (selection criteria): Patients were screened in a period from 42 days before treatment assignment to the assignment based on the following selection criteria.\nPatients who were probable AD and are 55 years old or older and 85 years old or younger at the time of obtaining consent of screening.\nPatients with an MMSE score of 12 to 22 at the time of screening\n(§1) Patients with a Modified Hachinski Ischemia Scale score of 4 or less\nPatients who have been treated with a donepezil hydrochloride or rivastigmine transdermal system for at least 4 months before the baseline and with a stable dose thereof for 3 months before the baseline.\nIn the case of patients who have received memantine in addition to being treated with a donepezil hydrochloride or rivastigmine transdermal system, patients who have been treated with memantine for at least 4 months before the baseline and with a stable dose thereof for 3 months before the baseline.\nPatients whose brain MRI or CT results match AD at the time of screening\nOrganization of groups: Patients matched (484 patients) were randomly divided into the following 3 groups and the trial was started.\n(1) High dose group: 224 mg of a test compound (160 mg in terms of Compound A) was orally administered once a day for 4 weeks and then 448 mg of a test compound (320 mg in terms of Compound A) was orally administered once a day for 48 weeks (158 patients)\n(2) Low dose group: 224 mg of a test compound (160 mg in terms of Compound A) was orally administered once a day for 52 weeks (166 patients)\n(3) Placebo group: placebo was orally administered once a day for 52 weeks (158 patients)\n(§2) Brain volume of subjects was measured by vMRI scan at the screening and after 52 weeks, and the volume change of the whole brain and the hippocampus of the subjects were quantified to assess brain atrophy based on the change from the screening.\nFurthermore, volume change of the whole brain and 101 areas (obtained by dividing the areas existing in both the left brain and the right brain of the Brodmann areas (1 to 52) into 101 areas) in each subject was quantified to assess brain atrophy based on the change from the screening.\nChanges in the volume of the whole brain and the hippocampus after 52 weeks from the baseline were compared between the high dose group and the placebo group, and between the low dose group and the placebo group based on Mixed-effect Models. For models, the treatment groups were included as a fixed effect, age, baseline of the respective brain volumes (the whole brain or the hippocampus), baseline of MMSE and ApoE4 genotype (positive/negative) were included as covariates, and trial sites were included as a random effect.\nFurthermore, changes in the respective volumes of the whole brain and the 101 areas after 52 weeks from the baseline were compared between the high dose group and the placebo group, and between the low dose group and the placebo group."}, "[2]": {"system": "mild to moderate AD patients (brain volume: whole brain, hippocampus)", "assay": "Test Example 2: Early Phase II placebo-controlled trial, brain volume change by volumetric MRI", "format": "in vivo, human", "text": "Multicenter Randomized Double-Blind Early Phase II Placebo-Controlled Trial for Assessing Effectiveness and Safety of Compound A in Mild to Moderate AD Patients\nPatients were screened in a period from 28 days before treatment assignment to the assignment based on the following selection criteria. Patients matched (373 patients) were randomly divided into the following 2 groups and the trial was started.\nPatients who were probable AD and over or 50 years old or older and 90 years old or younger at the time of obtaining consent of screening.\nPatients with an MMSE score of 15 to 24 at the time of screening\nas §1\nPatients who have been treated with a donepezil hydrochloride for at least 6 months before the baseline and with a stable dose thereof for 3 months before the baseline.\nPatients whose brain MRI or CT results match AD at the time of screening Organization of groups:\n(1) Active drug group: 224 mg of a test compound (160 mg in terms of Compound A) was orally administered once a day for 52 weeks (176 patients)\n(2) Placebo group: placebo was orally administered once a day for 52 weeks (178 patients) Method of assessment:\nas §2\nThe mean amount of volume change of the whole brain and the hippocampus after 52 weeks from the baseline, standard deviation and the difference from the placebo group were calculated."}, "[3]": {"conditions": "Compound A group vs placebo group, week 52 from baseline"}, "[4]": {"conditions": "High dose group (160 mg for 4 weeks then 320 mg in terms of Compound A, oral once a day, 48 weeks)"}, "[5]": {"conditions": "Low dose group (160 mg in terms of Compound A, oral once a day, 52 weeks)"}, "[6]": {"conditions": "Low dose (active drug) group, 160 mg in terms of Compound A oral once a day, 52 weeks, vMRI at week 52 from baseline"}, "[7]": {"conditions": "Low dose (active drug) group, vMRI at week 52 from baseline"}}, "data": [{"smiles": "OC1CN(CCCOCCc2ccc3sccc3c2)C1", "note": "[Compound A, 1-(3-(2-(1-benzothiophen-5-yl)ethoxy)propyl)azetidin-3-ol]", "values": [{"measurement": "Change in the volume of the whole brain and the hippocampus versus placebo group (in words)", "setting": "[1]; [3]", "result": "volume reduction tended to be smaller"}, {"measurement": "Volume reduction of the whole brain and the hippocampus versus placebo group (in words)", "setting": "[1]; Compound A high dose group, analysis of whole brain and 101 areas", "result": "same tendency as in the low dose group was observed"}, {"measurement": "Volume reduction of the whole brain and the hippocampus versus placebo group (in words)", "setting": "[1]; Compound A low dose group, analysis of whole brain and 101 areas (Nos. 6 and 14 in Table 2)", "result": "tended to be suppressed"}, {"measurement": "Change in brain volume, Hippocampus, Least square means", "setting": "[1]; [4]", "result": -0.31, "unit": "mL"}, {"measurement": "Change in brain volume, Whole brain, Least square means", "setting": "[1]; [4]", "result": -20.05, "unit": "mL"}, {"measurement": "Change in brain volume, Hippocampus, Difference from placebo group", "setting": "[1]; High dose group", "result": 0.08, "unit": "mL"}, {"measurement": "Change in brain volume, Whole brain, Difference from placebo group", "setting": "[1]; High dose group", "result": 3.94, "unit": "mL"}, {"measurement": "Change in brain volume, Hippocampus, Least square means", "setting": "[1]; [5]", "result": -0.27, "unit": "mL"}, {"measurement": "Change in brain volume, Whole brain, Least square means", "setting": "[1]; [5]", "result": -21.37, "unit": "mL"}, {"measurement": "Change in brain volume, Hippocampus, Difference from placebo group", "setting": "[1]; Low dose group", "result": 0.12, "unit": "mL"}, {"measurement": "Change in brain volume, Whole brain, Difference from placebo group", "setting": "[1]; Low dose group", "result": 2.63, "unit": "mL"}, {"measurement": "Change in brain volume, Mean value, Right-Cerebellum-White-Matter", "setting": "[1]; Low dose group, week 52 from baseline, whole brain and 101 areas analysis", "result": "−0.89"}, {"measurement": "Change in the volume of the whole brain and the hippocampus versus placebo group (in words)", "setting": "[2]; [3]", "result": "volume reduction tended to be smaller"}, {"measurement": "Change in brain volume, Hippocampus, Mean change", "setting": "[2]; [6]", "result": -0.21, "unit": "mL"}, {"measurement": "Change in brain volume, Whole brain, Mean change", "setting": "[2]; [6]", "result": -3.83, "unit": "mL"}, {"measurement": "Change in brain volume, Hippocampus, Difference from placebo group", "setting": "[2]; [7]", "result": 0.09, "unit": "mL"}, {"measurement": "Change in brain volume, Whole brain, Difference from placebo group", "setting": "[2]; [7]", "result": 3.41, "unit": "mL"}]}]}
